Drawing on US11535630B2, “Apelin receptor (APJ) agonists and uses thereof” (Research Triangle Institute, priority 2015, dated 2022), this text covers EC50 for 27 compounds.

A value given as a limit tells only on which side of the number the result lay.

One experiment deals with T1, apelin receptor (APJ) (Homo sapiens, UniProt P35414).
T1 sequence (P35414 1-380): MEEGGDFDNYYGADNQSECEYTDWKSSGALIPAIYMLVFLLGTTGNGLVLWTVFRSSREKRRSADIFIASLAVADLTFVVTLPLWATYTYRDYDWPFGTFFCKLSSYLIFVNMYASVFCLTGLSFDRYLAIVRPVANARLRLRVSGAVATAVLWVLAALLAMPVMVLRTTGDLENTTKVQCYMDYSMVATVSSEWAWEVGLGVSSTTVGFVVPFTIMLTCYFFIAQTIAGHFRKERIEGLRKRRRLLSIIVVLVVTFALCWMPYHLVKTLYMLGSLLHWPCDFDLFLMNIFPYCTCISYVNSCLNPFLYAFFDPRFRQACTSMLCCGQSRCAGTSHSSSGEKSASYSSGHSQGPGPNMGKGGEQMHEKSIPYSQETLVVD
The experiment can be described thus: In vitro apelin agonist activity (methods of Giddings et al., Apelin-13 as positive control). The conditions noted are these: EC50 (nM) Ave, in vitro apelin agonist activity, methods of Giddings et al., Apelin-13 as positive control. It counts as cell-based. From the text: Characterization of the Apelin Agonist Activity of the Compounds
1:39-47, the contents of which are hereby incorporated by reference in its entirety. Using the methods described in Giddings et al. and Apelin-13 as a positive control.
For orientation: EC50 means the concentration giving half of the maximal effect. Regarding `COc1cccc(OC)c1-c1cc(C(=O)N[C@@H](CCc2ccccc2)C(=O)O)nn1CC(C)C` [compound 311, (2S)-2-{[5-(2,6-dimethoxyphenyl)-1-(2-methylpropyl)-1H-pyrazol-3-yl]formamido}-4-phenylbutanoic acid], the concentration giving a half-maximal response (EC50) is over 10000 nM.

Still in this experiment, the particulars now being: in vitro apelin agonist activity, methods of Giddings et al., Apelin-13 as positive control; read-out: EC50 (nM) Ave.
For `C[C@H](C[C@@H](CC(=O)O)NC(=O)c1cc(-c2ccccc2C(C)(F)F)n(C2CCCC2)n1)N1C[C@@H](F)[C@H](F)C1` (mixture of isomers) [compound 599, (3S,5R)-3-({1-cyclopentyl-5-[2-(1,1-difluoroethyl)phenyl]-1H-pyrazol-3-yl}formamido)-5-[trans-3,4-difluoropyrrolidin-1-yl]hexanoic acid], the EC50 worked out at 24 nM.
Same read-out and setting: in the case of `CC(F)(F)c1ccccc1-c1cc(C(=O)N[C@@H](CCN2C[C@H](F)[C@@H](F)C2)CC(=O)O)nn1C1CCCC1` (stereo in doubt) [compound 594, (3S)-3-({1-cyclopentyl-5-[2-(1,1-difluoroethyl)phenyl]-1H-pyrazol-3-yl}formamido)-5-[trans-3,4-difluoropyrrolidin-1-yl]pentanoic acid] it was 44 nM; in that of `COc1cccc(OC)c1-c1cc(C(=O)N[C@H](CC(=O)O)Cc2ccccc2)nn1CC(C)C` [compound 297, (3S)-3-{[5-(2,6-dimethoxyphenyl)-1-(2-methylpropyl)-1H-pyrazol-3-yl]formamido}-4-phenylbutanoic acid], over 10000 nM.
Consider `COc1cccc(OC)c1-c1cc(C(=O)N[C@@H](CCc2ccccc2)CC(=O)O)nn1-c1ccc(F)cc1` [compound 299, (3S)-3-{[5-(2,6-dimethoxyphenyl)-1-(4-fluorophenyl)-1H-pyrazol-3-yl]formamido}-5-phenylpentanoic acid], for which the 50% effective concentration (EC50) stood at 2910 nM.
As to `COc1cccc(OC)c1-c1cc(C(=O)N[C@H](CC(=O)O)c2ccccc2)nn1CC(C)C` [compound 300, (3R)-3-{[5-(2,6-dimethoxyphenyl)-1-(2-methylpropyl)-1H-pyrazol-3-yl]formamido}-3-phenylpropanoic acid], the half-maximal effective concentration (EC50) is over 10000 nM.
Still for that read-out and setting: in the case of `COc1cccc(OC)c1-c1cc(C(=O)N[C@@H](CCCC2CCCCC2)CC(=O)O)nn1CC(C)C` [compound 301, (3S)-6-cyclohexyl-3-{[5-(2,6-dimethoxyphenyl)-1-(2-methylpropyl)-1H-pyrazol-3-yl]formamido}hexanoic acid] it was 2590 nM; in that of `COc1cccc(OC)c1-c1cc(C(=O)N[C@@H](Cc2ccccc2)C(=O)NC2CCC2)nn1CC(C)C` [compound 302, (2S)-N-cyclobutyl-2-{[5-(2,6-dimethoxyphenyl)-1-(2-methylpropyl)-1H-pyrazol-3-yl]formamido}-3-phenylpropanamide], over 10000 nM.
In the case of `COc1cccc(OC)c1-c1cc(C(=O)N[C@@H](CCN2CCOCC2)CC(=O)OC(C)(C)C)nn1C1CCCC1` [compound 303, tert-butyl (3S)-3-{[1-cyclopentyl-5-(2,6-dimethoxyphenyl)-1H-pyrazol-3-yl]formamido}-5-(morpholin-4-yl)pentanoate], the EC50 is over 10000 nM.
Regarding `COc1cccc(OC)c1-c1cc(C(=O)N[C@@H](CCN2CCN(C)CC2)CC(=O)OC(C)(C)C)nn1C1CCCC1` [compound 304, tert-butyl (3S)-3-{[1-cyclopentyl-5-(2,6-dimethoxyphenyl)-1H-pyrazol-3-yl]formamido}-5-(4-methylpiperazin-1-yl)pentanoate], the half-maximal effective concentration (EC50) is over 10000 nM.
On the same count and under the same terms, in the case of `CCN(CC)CC[C@@H](CC(=O)OC(C)(C)C)NC(=O)c1cc(-c2c(OC)cccc2OC)n(C2CCCC2)n1` [compound 305, tert-butyl (3S)-3-{[1-cyclopentyl-5-(2,6-dimethoxyphenyl)-1H-pyrazol-3-yl]formamido}-5-(diethylamino)pentanoate] it was over 10000 nM.
Take `COc1cccc(OC)c1-c1cc(C(=O)N[C@@H](CCNCc2ccncc2)CC(=O)OC(C)(C)C)nn1C1CCCC1` [compound 306, tert-butyl (3S)-3-{[1-cyclopentyl-5-(2,6-dimethoxyphenyl)-1H-pyrazol-3-yl]formamido}-5-[(pyridin-4-ylmethyl)amino]pentanoate]: the EC50 is over 10000 nM.
The same measure, in the same setting: in the case of `COc1cccc(OC)c1-c1cc(C(=O)N[C@@H](CCN2CCN(C)CC2)CC(=O)O)nn1C1CCCC1` [compound 308, (3S)-3-{[1-cyclopentyl-5-(2,6-dimethoxyphenyl)-1H-pyrazol-3-yl]formamido}-5-(4-methylpiperazin-1-yl)pentanoic acid] it was over 10000 nM; in that of `COc1cccc(OC)c1-c1cc(C(=O)N[C@@H](CCNCc2ccncc2)CC(=O)O)nn1C1CCCC1` [compound 310, (3S)-3-{[1-cyclopentyl-5-(2,6-dimethoxyphenyl)-1H-pyrazol-3-yl]formamido}-5-[(pyridin-4-ylmethyl)amino]pentanoic acid], over 10000 nM.
Take `COc1cccc(OC)c1-c1cc(C(=O)N[C@@H](CCN2CCOCC2)CC(=O)NC2CCC2)nn1C1CCCC1` [compound 312, (3S)-N-cyclobutyl-3-{[1-cyclopentyl-5-(2,6-dimethoxyphenyl)-1H-pyrazol-3-yl]formamido}-5-(morpholin-4-yl)pentanamide]: the half-maximal effective concentration (EC50) worked out at 343 nM.
For the compound `CCN(CC)CC[C@@H](CC(=O)NC1CCC1)NC(=O)c1cc(-c2c(OC)cccc2OC)n(C2CCCC2)n1` [compound 314, (3S)-N-cyclobutyl-3-{[1-cyclopentyl-5-(2,6-dimethoxyphenyl)-1H-pyrazol-3-yl]formamido}-5-(diethylamino)pentanamide], the EC50 came out at 1840 nM.
On the same count and under the same terms, in the case of `COc1cccc(OC)c1-c1cc(C(=O)N[C@H]2CCN(Cc3ccncc3)C(=O)C2)nn1C1CCCC1` [compound 315, 1-cyclopentyl-5-(2,6-dimethoxyphenyl)-N-[(4S)-2-oxo-1-(pyridin-4-ylmethyl)piperidin-4-yl]-1H-pyrazole-3-carboxamide] it was over 10000 nM; in that of `COc1cccc(OC)c1-c1cc(C(=O)N[C@@H](CCN2CCCC2)CC(=O)OC(C)(C)C)nn1C1CCCC1` [compound 316, tert-butyl (3S)-3-{[1-cyclopentyl-5-(2,6-dimethoxyphenyl)-1H-pyrazol-3-yl]formamido}-5-(pyrrolidin-1-yl)pentanoate], over 10000 nM.
Same read-out and setting: in the case of `COc1cccc(OC)c1-c1cc(C(=O)N[C@@H](CCN2CCCCCC2)CC(=O)OC(C)(C)C)nn1C1CCCC1` [compound 319, tert-butyl (3S)-5-(azepan-1-yl)-3-{[1-cyclopentyl-5-(2,6-dimethoxyphenyl)-1H-pyrazol-3-yl]formamido}pentanoate] it was 3510 nM; in that of `COc1cccc(OC)c1-c1cc(C(=O)N[C@@H](CCN2C3CCC2CC3)CC(=O)OC(C)(C)C)nn1C1CCCC1` [compound 320, tert-butyl (3S)-5-{7-azabicyclo[2.2.]heptan-7-yl}-3-{[1-cyclopentyl-5-(2,6-dimethoxyphenyl)-1H-pyrazol-3-yl]formamido}pentanoate], over 10000 nM.
For `COc1cccc(OC)c1-c1cc(C(=O)N[C@H](CC(=O)NC2CCC2)Cc2ccccc2)nn1CC(C)C` [compound 321, (3S)-N-cyclobutyl-3-{[5-(2,6-dimethoxyphenyl)-1-(2-methylpropyl)-1H-pyrazol-3-yl]formamido}-4-phenylbutanamide], the half-maximal effective concentration (EC50) stood at 114 nM.
On the same count and under the same terms, in the case of `COc1cccc(OC)c1-c1cc(C(=O)N[C@@H](CCN2CCCCCC2)CC(=O)NC2CCC2)nn1C1CCCC1` [compound 324, (3S)-5-(azepan-1-yl)-N-cyclobutyl-3-{[1-cyclopentyl-5-(2,6-dimethoxyphenyl)-1H-pyrazol-3-yl]formamido}pentanamide] it was 107 nM.
The same measure, in the same setting: in the case of `COc1cccc(OC)c1-c1cc(C(=O)N[C@@H](CCN2C(C)CCCC2C)CC(=O)NC2CCC2)nn1C1CCCC1` (stereo partly drawn) [compound 329, (3S)-N-cyclobutyl-3-{[1-cyclopentyl-5-(2,6-dimethoxyphenyl)-1H-pyrazol-3-yl]formamido}-5-(2,6-dimethylpiperidin-1-yl)pentanamide] it was 170 nM.
Same read-out and setting: in the case of `COc1cccc(OC)c1-c1cc(C(=O)N[C@@H](CCN2CCCCC2)CC(=O)N(C)C2CCC2)nn1C1CCCC1` [compound 331, (3S)-N-cyclobutyl-3-{[1-cyclopentyl-5-(2,6-dimethoxyphenyl)-1H-pyrazol-3-yl]formamido}-N-methyl-5-(piperidin-1-yl)pentanamide] it was 353 nM; in that of `COc1cccc(OC)c1-c1cc(C(=O)N[C@@H](CCN2CCCCC2)CC(=O)NC2CCOCC2)nn1C1CCCC1` [compound 332, (3S)-3-{[1-cyclopentyl-5-(2,6-dimethoxyphenyl)-1H-pyrazol-3-yl]formamido}-N-(oxan-4-yl)-5-(piperidin-1-yl)pentanamide], 391 nM; in that of `COc1cccc(OC)c1-c1cc(C(=O)N[C@@H](CCN2CCCCC2)CC(=O)NC(C)(C)C)nn1C1CCCC1` [compound 333, (3S)-N-tert-butyl-3-{[1-cyclopentyl-5-(2,6-dimethoxyphenyl)-1H-pyrazol-3-yl]formamido}-5-(piperidin-1-yl)pentanamide], 2530 nM.
As to `COCCN(C)C(=O)C[C@H](CCN1CCCCC1)NC(=O)c1cc(-c2c(OC)cccc2OC)n(C2CCCC2)n1` [compound 334, (3S)-3-{[1-cyclopentyl-5-(2,6-dimethoxyphenyl)-1H-pyrazol-3-yl]formamido}-N-(2-methoxyethyl)-N-methyl-5-(piperidin-1-yl)pentanamide], the 50% effective concentration (EC50) turned out to be 6570 nM.
